Assay results reported in article PMC10295897, “A Novel MDM2-Binding Chalcone Induces Apoptosis of Oral Squamous Cell Carcinoma” (Biomedicines, 2023).

Legend:
[1] = tested on: HEP2G (hepatocarcinoma); assay: MTT cell viability assay, HEP2G; format: cell-based; conditions: 48 h
Method: The viability of SCC cell lines, HT-29, HCT-116, HEP2G and primary human fibroblast cells was evaluated using the MTT assay as in [26]. Briefly, the cells were grown in duplicates in 96-well plates (5 × 10^3 cells/well) until confluence. Then, the medium was removed, fresh medium was added, and the cells were returned to the incubator in the presence of different compounds. DMSO at the same concentrations was used as a 100% cell viability control. After 48 h, the cells were incubated with 5 mg/mL MTT reagent (3-(4,5-dimethyl-2-thiazolyl)-2,5-diphenyl-2-H-tetrazolium bromide) (Sigma-Aldrich Co., St. Louis, MO, USA) for 3.5 h. After that, formazan crystals were dissolved in MTT solvent solution (DMSO/methanol 1:1 v/v), and the absorbance at 560 nm was evaluated using an EPOCH microplate spectrophotometer (BioTek Instruments, Winooski, VT, USA) with the background absorbance at 670 nm subtracted. […]
The data are presented as means ± SD. […] The selectivity index was calculated as SI = IC50 of the compound in normal oral fibroblast cells/IC50 of the same compound for each cancer cell line (SCC-4, SCC-9, SCC-25, HCT-116, HT29 and HEP2G), and the mean was calculated when indicated.

[2] = tested on: SCC9 cells; assay: Annexin V-FITC/PI apoptosis flow cytometry; format: cell-based, human; conditions: SCC9, 2 × IC50, 48 h
Method: Cells of the SCC9 cell line were plated in 6-well plates (5 × 10^5 cells/well), trypsinized 48 h after treatment, labeled using the Annexin V-FITC Apoptosis Detection Kit according to the manufacturer’s protocol (#BMS500FI/300, Invitrogen), and analyzed by FACScalibur flow cytometry as in [35]. Furthermore, 5 × 10^4 SCC-9 cells were plated in a 24-well plate containing 1 mL of DMEM/F12 with 10% FBS per well. CellEvent™ Caspase-3/7 Reagent (#R37111, Invitrogen) was diluted in a culture medium according to the manufacturer’s instructions. […] The cells were analyzed by flow cytometry after 48 h of treatment.

[3] = tested on: SCC9 cells; assay: Cell cycle and SubG1 analysis (PI flow cytometry); format: cell-based, human; conditions: SCC9, 2 × IC50, 48 h, PI staining
Method: To evaluate the action of compound 1f on the cell cycle and DNA fragmentation, SCC9 cell line cells were plated in a 6-well plate (5 × 10^5 cells/well). After 48 h of treatment, the cells were trypsinized and stained with propidium iodide (75 µM) in the presence of NP-40. The DNA content was analyzed by collecting 10,000 events using a FACScalibur flow cytometer. The data were analyzed using CellQuest (BD Biosciences, Franklin Lakes, NJ, USA) and FlowJo (Tree Star Inc., Ashland, OR, USA) software as in [34].

[4] = tested on: C57BL/6 female mice; assay: In vivo acute toxicity study; conditions: for Gross Necropsy: day 14
Method: The acute toxicity study for compound 1f was performed as in the work of Macedo et al., 2019 [24]. The assay was approved by the University Animal Ethics Board under registration number 2699110419, in accordance with Brazilian guidelines and regulations. Dosing and analysis were performed according to OECD guidelines 423 and revised by Parasuraman. The test was performed in 12-week-old C57BL/6 female mice via intraperitoneal injection. Each animal group had n = 3 and received only one intraperitoneal injection (Day 0) of compound 1f dissolved in […] PBS and 3% DMSO. The control group animals received only 3% DMSO in PBS. The first dose of the compound was 25 mg/kg; subsequent dose levels (50 mg/kg and 100 mg/kg) were determined based on the result obtained from the previous dosing. The animals were examined every day, twice a day, for mortality and morbidity for 14 days. At day 14, all animals were anesthetized (ketamine 100 mg/kg and xylazine 10 mg/kg) followed by cervical dislocation. The gross necropsy and histology of the main organs were performed. Body weight and average food consumption were measured every 7 days as an indication of morbidity, and the following signs were assessed: tremors; convulsion; salivation; diarrhea; lethargy; pain signs; increased rear arching; and defect in mobility. The necropsy included an examination of the external characteristics of the carcass; external body orifices; the abdominal, thoracic, and cranial cavities; and organs/tissues—liver, thymus, right kidney, right testicle, heart, and lung.

[5] = tested on: SCC4 cells; assay: MTT cell viability assay, SCC4 cells; format: cell-based, human
Method: Human SCC-4, SCC-9, and SCC-25 cells derived from a human oral tongue SCC (squamous cell carcinoma) were obtained from the ATCC (CRL-1624, CRL-1629, and CRL-1628, respectively) and maintained in 1:1 DMEM/F12 (Dulbecco’s modified Eagle medium and Ham’s F12 medium; Gibco (Thermo Fisher, Waltham, MA, USA)) supplemented with 10% (v/v) FBS (fetal bovine serum; Invitrogen, Thermo Fisher, Waltham, MA, USA) and 400 ng/mL hydrocortisone (Sigma-Aldrich Co., St. Louis, MO, USA). Primary normal human gingival fibroblasts were obtained from the ATCC (PCS-201-018; HGF) and maintained in DMEM supplemented with 10% (v/v) FBS and were used in a maximum of six passages. The cells were grown in a humidified environment containing 5% CO2 at 37 °C. For all biological experiments, the compounds and control nutlin 3a were solubilized in 100% DMSO (all Sigma-Aldrich) to a final concentration of 10 mM. Carboplatin stock was prepared in water (Fauldcarbo®; LibbsFarmacêutica, São Paulo, SP, Brazil) and was used as a standard anticancer compound.
The viability of SCC cell lines, HT-29, HCT-116, HEP2G and primary human fibroblast cells was evaluated using the MTT assay as in [26]. Briefly, the cells were grown in duplicates in 96-well plates (5 × 10^3 cells/well) until confluence. Then, the medium was removed, fresh medium was added, and the cells were returned to the incubator in the presence of different compounds. DMSO at the same concentrations was used as a 100% cell viability control. After 48 h, the cells were incubated with 5 mg/mL MTT reagent (3-(4,5-dimethyl-2-thiazolyl)-2,5-diphenyl-2-H-tetrazolium bromide) (Sigma-Aldrich Co., St. Louis, MO, USA) for 3.5 h. After that, formazan crystals were dissolved in MTT solvent solution (DMSO/methanol 1:1 v/v), and the absorbance at 560 nm was evaluated using an EPOCH microplate spectrophotometer (BioTek Instruments, Winooski, VT, USA) with the background absorbance at 670 nm subtracted. Each of the six compounds was tested at six or seven different concentrations, ranging from 0.3 µM to 200 µM in cancer cell lines (SCC-4, SCC-9 and SCC-25) and 0.3 µM to 200 µM in primary normal human gingival fibroblasts. Controls (carboplatin, nutlin 3a) were tested at six or seven different concentrations ranging from 0.05 µM to 1000 µM in cancer cells and normal cells, depending on the compound.
The data are presented as means ± SD. IC values for the MTT assays were obtained by nonlinear regression using the […] 5.0 program (Intuitive Software for Science, San Diego, CA, USA) from at least three independent experiments. A dose–response (inhibitor) vs. response curve using the least squares method was used to determine the IC50, SD, and R^2 of the data. The selectivity index was calculated as SI = IC50 of the compound in normal oral fibroblast cells/IC50 of the same compound for each cancer cell line (SCC-4, SCC-9, SCC-25, HCT-116, HT29 and HEP2G), and the mean was calculated when indicated.

[6] = Solubility observed during in vitro testing; format: physicochemical; conditions: in vitro cytotoxicity testing

Cc1cccc(C)c1-n1cc(/C=C/C(=O)c2ccccc2N)nn1 [1f, (E)-1-(2-Aminophenyl)-3-(1-(2,6-dimethylphenyl)-1H-1,2,3-triazol-4-yl)prop-2-en-1-one]
IC50 [1]: 39.4 µM
phosphatidylserine exposure [2]: 43.0%
cells in G2/M phase [3]: 44.0%
fragmentation of DNA (Sub-G1 DNA-content) [3]: 23.3%
Change in body weight ([4]; 25 mg/kg single i.p., 14 days): Absent
Morbidity ([4]; 25 mg/kg single i.p., 14 days): Absent
Gross Necropsy ([4]; 25 mg/kg single i.p.): No alteration
Change in body weight ([4]; 50 mg/kg single i.p., 14 days): Absent
Morbidity ([4]; 50 mg/kg single i.p., 14 days): Absent
Gross Necropsy ([4]; 50 mg/kg single i.p.): No alteration
Change in body weight ([4]; 100 mg/kg single i.p., 14 days): Absent
Morbidity ([4]; 100 mg/kg single i.p., 14 days): Absent
Gross Necropsy ([4]; 100 mg/kg single i.p.): No alteration
animal weight compared to control group ([4]; 25, 50, 100 mg/kg i.p., 14 days): no significant change in animal weight
food consumption, second week ([4]; all groups (25, 50, 100 mg/kg i.p.)): no noticeable difference in food consumption
food intake, first week ([4]; all treated groups (25, 50, 100 mg/kg i.p.), more significant at 100 mg/kg): reduction in food intake
IC50 ([5]; Homo sapiens, SCC-4, 48 h, MTT): 4.73 µM
SCC4 S.I. ([5]; selective index = IC50 HGF / IC50 SCC4): 6.25
solubility (in words) [6]: highly soluble
